Patent US20260083751A1, “ALLOSTERIC MODULATORS OF ANDROGEN RECEPTOR COACTIVATOR RECRUITMENT FOR CRPC THERAPY” (University of Pittsburgh – Of the Commonwealth System of …, priority 2022, published 2026)
“Also recorded” adds a separate entry of the source.

Legend:
Type in all cases: cell-based
AR = target: T1, AR (Homo sapiens, UniProt P10275, T878A); test: Western blotting cellular thermal shift assay for AR in C4-2 cells; details: for AR thermal stability at 46° C., compound alone (western blot): hits 20 μM for 1 h at 37° C.; for DHT-enhanced AR thermal stability at 46° C. (western blot): hits 20 μM, 10 nM DHT
T1 construct: the amount of soluble AR protein in heat shocked C4-2 cell lysates; endogenous in cells; host or cells: C4-2 castration resistant prostate cancer cells
T1 sequence (P10275 1-920 T878A): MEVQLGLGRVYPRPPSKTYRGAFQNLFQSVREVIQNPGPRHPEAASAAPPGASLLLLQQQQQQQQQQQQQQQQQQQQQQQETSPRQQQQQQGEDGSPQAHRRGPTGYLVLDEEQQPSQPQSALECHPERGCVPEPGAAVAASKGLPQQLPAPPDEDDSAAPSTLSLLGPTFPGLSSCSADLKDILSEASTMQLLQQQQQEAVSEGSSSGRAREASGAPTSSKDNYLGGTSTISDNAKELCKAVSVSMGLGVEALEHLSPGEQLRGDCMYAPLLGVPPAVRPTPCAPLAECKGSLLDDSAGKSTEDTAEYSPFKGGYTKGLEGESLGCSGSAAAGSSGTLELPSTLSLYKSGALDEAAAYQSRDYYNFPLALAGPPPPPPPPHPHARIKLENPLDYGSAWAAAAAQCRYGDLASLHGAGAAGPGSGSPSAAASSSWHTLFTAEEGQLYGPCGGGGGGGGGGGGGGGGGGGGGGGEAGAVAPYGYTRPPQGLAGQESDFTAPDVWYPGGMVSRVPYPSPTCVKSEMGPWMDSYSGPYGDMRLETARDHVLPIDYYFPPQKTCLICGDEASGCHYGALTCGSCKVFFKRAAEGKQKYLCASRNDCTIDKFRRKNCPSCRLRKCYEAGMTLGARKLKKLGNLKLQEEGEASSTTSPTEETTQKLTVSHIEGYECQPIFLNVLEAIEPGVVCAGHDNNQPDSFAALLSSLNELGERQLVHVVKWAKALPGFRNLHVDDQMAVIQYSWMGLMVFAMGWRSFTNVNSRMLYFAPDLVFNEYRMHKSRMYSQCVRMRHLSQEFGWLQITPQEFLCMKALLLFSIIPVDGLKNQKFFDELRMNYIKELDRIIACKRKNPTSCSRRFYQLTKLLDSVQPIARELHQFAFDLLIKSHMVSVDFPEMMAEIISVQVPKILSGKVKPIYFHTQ
Description: (§1) Western Blotting Cellular Thermal Shift Assays for TIF2 and AR Target Engagement in C4-2 Cells: C4-2 cells were harvested by trypsinization, washed 1× by centrifugation at 270×g for 5 min and resuspension in PBS, counted, centrifugated at 270× g for 5 min and resuspended at 7×10^6 cells per mL in Opti-MEM medium (Gibco, Gaithersburg, MD). 50 μL of C4-2 cell suspension (3.5×10^5 cells) were then transferred to PCR tubes that were placed in a T-100 thermocycler (BioRad, Hercules, CA) and a 2° C. interval temperature step gradient from 37° C. to 53° C. was applied. Cells were maintained at each step of the temperature gradient for 5 min and then tubes were withdrawn and placed on ice. 50 μL of cell lysis buffer, 500 mM NaCl, 1% NP-40, 1× protease inhibitor cocktail in PBS were added to the heat shocked cell suspensions in PCR tubes and placed on ice for an additional 30 min. Cell lysates were then centrifuged at 14,000 RPM (18,800×g) at 4° C. for 15 min and supernatants were transferred to new tubes and protein concentrations were determined in a bicinchoninic acid (BCA) assay. 45 μL of cell lysis supernatants were mixed with 15 μL of 5×SDS-PAGE sample buffer and placed in a heat block at 100° C. for 5 min. The protein constituents of heat shocked C4-2 cell lysis supernatants were separated by SDS-PAGE on 8% separating gels, transferred to nitrocellulose membranes that were blocked for 1 h at room temperature in 5% non-fat milk in TBST, and then probed overnight at 4° C. with a 1:1000 dilution of either rabbit anti-AR (Cell Signaling, Danvers, MA) or rabbit anti-TIF2 (Bethyl Laboratories, Waltham, MA) primary antibodies in TBST containing 5% non-fat milk. Membranes were then washed 3× in TBST buffer for 10 min, then incubated with a 1:10,000 dilution of the goat anti-rabbit IgG HRP conjugated secondary antibody (Invitrogen, Carlsbad, CA) in TBST containing 5% non-fat milk for 1 h at room temperature. Western blots were then washed 3× in TBST buffer and developed with Pierce ECL western blotting substrate. Images of ECL western blots were acquired on an iBright™ 1500 imaging system and quantified using the iBright™ image analysis software.

[1] = tested on: PSA secretion in C4-2 conditioned media; test: Dot blot of PSA secretion by C4-2 cells; details: C4-2 cells, 20 μM 3 h, ±10 nM DHT 24 h
Description: To determine PSA secretion levels, C4-2 cells were seeded at 1.4×10^5 cells/well in 12-well plates and treated as described above for PSA cell expression experiments. […] 500 μL of conditioned media supernatant was added to the wells of 96-well to Bio-blot apparatus (BioRad, Hercules, CA) containing a nitrocellulose membrane and was allowed to pass through and attach to the membrane under gravity for 3-4 h at room temperature. The membrane was washed 1× with 500 μL TBS under vacuum, blocked with 1% BSA in TBST for 1 h, and then incubated overnight at 4° C. with the primary rabbit anti-hPSA antibody (Cell Signaling, Danvers, MA) diluted 1:1000 in TBST plus 1% BSA. Dot blots were washed 3× in 10 mL of TBST for 10 min, then incubated for 1 h with secondary goat anti-rabbit-IgG HRP conjugated antibody (Invitrogen, Carlsbad, CA) diluted 1:10,000 in TBST plus 1% Bovine Serum Albumin (BSA), washed 3× with […] of TBST for 10 min, and then developed with Pierce ECL western blotting substrate. Images of ECL dot blots were acquired on an iBright™ 1500 imaging system and quantified by iBright™ image analysis software (ThermoFisher Scientific, Waltham, MA).

TIF2 = target: T2, TIF2 (Homo sapiens, UniProt Q15596); test: Western blotting cellular thermal shift assay for TIF2 in C4-2 cells; details: 20 μM, TIF2 western blots
T2 construct: endogenous in cells; host or cells: C4-2 castration resistant prostate cancer cells
T2 sequence (Q15596 whole entry): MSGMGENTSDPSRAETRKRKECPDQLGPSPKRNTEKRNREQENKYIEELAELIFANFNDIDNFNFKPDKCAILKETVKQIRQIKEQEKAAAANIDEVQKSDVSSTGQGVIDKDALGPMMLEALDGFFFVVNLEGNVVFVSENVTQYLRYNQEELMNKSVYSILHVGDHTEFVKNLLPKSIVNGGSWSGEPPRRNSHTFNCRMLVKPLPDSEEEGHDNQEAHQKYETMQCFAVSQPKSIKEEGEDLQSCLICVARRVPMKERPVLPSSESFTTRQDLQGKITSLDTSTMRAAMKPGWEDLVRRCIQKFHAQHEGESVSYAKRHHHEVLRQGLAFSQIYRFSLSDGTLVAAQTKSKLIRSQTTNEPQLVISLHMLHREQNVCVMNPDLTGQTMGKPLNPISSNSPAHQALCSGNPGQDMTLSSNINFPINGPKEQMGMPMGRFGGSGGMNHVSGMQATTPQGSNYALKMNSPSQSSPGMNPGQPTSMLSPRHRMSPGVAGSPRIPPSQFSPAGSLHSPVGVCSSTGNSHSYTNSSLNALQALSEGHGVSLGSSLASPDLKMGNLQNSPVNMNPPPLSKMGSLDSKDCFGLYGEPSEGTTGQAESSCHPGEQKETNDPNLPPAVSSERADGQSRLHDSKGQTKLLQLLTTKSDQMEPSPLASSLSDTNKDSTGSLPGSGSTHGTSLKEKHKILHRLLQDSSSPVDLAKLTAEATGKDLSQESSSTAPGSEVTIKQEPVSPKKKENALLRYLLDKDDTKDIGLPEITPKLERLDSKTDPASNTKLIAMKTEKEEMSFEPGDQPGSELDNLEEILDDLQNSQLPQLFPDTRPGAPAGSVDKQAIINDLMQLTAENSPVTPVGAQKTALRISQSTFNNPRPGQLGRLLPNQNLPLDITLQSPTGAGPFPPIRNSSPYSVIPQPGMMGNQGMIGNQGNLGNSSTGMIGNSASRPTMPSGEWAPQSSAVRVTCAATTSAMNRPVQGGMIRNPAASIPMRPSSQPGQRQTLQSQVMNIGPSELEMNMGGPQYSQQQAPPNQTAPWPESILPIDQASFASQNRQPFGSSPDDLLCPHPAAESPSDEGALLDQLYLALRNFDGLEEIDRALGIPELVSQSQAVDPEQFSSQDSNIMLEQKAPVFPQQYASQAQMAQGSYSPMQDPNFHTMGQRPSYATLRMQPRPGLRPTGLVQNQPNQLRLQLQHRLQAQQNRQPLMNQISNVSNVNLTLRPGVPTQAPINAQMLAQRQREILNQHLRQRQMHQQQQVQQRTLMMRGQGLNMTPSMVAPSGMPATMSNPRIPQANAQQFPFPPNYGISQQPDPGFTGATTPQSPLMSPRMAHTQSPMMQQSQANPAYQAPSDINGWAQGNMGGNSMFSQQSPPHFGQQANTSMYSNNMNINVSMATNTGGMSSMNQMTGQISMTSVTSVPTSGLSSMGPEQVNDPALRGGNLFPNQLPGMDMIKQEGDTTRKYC
Description: as §1

| Compound | AR thermal stability at 46° C., compound alone (western blot) (AR) | DHT-enhanced AR thermal stability at 46° C. (western blot) (AR) | Endogenous and DHT-enhanced PSA secretion [1] | TIF2 thermal stability at 46° C. (TIF2) | TIF2 thermal stability at 46° C. (TIF2; listed as 6) |
| --- | --- | --- | --- | --- | --- |
| Cc1ccccc1-c1cc(O)c2c(c1)CN(c1nc(C(N)=O)cs1)CCO2 [Compound S1-1] | did not stabilize AR | only partially blocked DHT-enhanced AR stabilization; also recorded: inhibition of DHT-enhanced AR thermal stability | substantially reduced; also recorded: inhibition | did not enhance TIF2 thermal stability; also recorded: do not enhance TIF2 thermal stability | – |
| Cc1c(-c2ccccc2F)[nH]c2ccc(CNC(=O)CCc3cn[nH]c3)cc12 [Compound S3-11] | did not stabilize AR | only partially blocked DHT-enhanced AR stabilization; also recorded: inhibition of DHT-enhanced AR thermal stability | substantially reduced; also recorded: inhibition | did not enhance TIF2 thermal stability; also recorded: do not enhance TIF2 thermal stability | – |
| Cc1nsc(NC(=O)N2CCC(Sc3ccccc3C)CC2)n1 [Compound S2-6] | did not stabilize AR | blocked DHT-enhanced AR thermal stabilization below DMSO baseline levels; also recorded: inhibition of DHT-enhanced AR thermal stability | substantially reduced; also recorded: inhibition | did not enhance TIF2 thermal stability; also recorded: do not enhance TIF2 thermal stability | did not enhance TIF2 stability |
